Experimental findings from ChEMBL document CHEMBL1153613, “Synthesis and reactivity of novel gamma-phosphate modified ATP analogues” (Bioorg Med Chem Lett, 2009) are described below.

Molecules are shown by their SMILES. The source made the active and inactive calls. The rule behind the calls is not given here.

In this experiment the target is Cyclin-dependent kinase 2 (Homo sapiens) (UniProt P24941). Nature of the experiment: Effect on wild type recombinant CDK2/cyclin E1 assessed as p27kip1 phosphorylation after 1 hr by immunoblot analysis.
Take `C#CCCCOP(=O)(O)OP(=O)(O)OP(=O)(O)OC[C@H]1O[C@@H](n2cnc3c(N)ncnc32)[C@H](O)[C@@H]1O`: the result was Active.

Turning to `[N-]=[N+]=Nc1ccc(NP(=O)(O)OP(=O)(O)OP(=O)(O)OC[C@H]2O[C@@H](n3cnc4c(N)ncnc43)[C@H](O)[C@@H]2O)cc1`, the outcome was Active.

Regarding `[N-]=[N+]=NCCOP(=O)(O)OP(=O)(O)OP(=O)(O)OC[C@H]1O[C@@H](n2cnc3c(N)ncnc32)[C@H](O)[C@@H]1O`, the outcome was Active.

As for `C#CCCNP(=O)(O)OP(=O)(O)OP(=O)(O)OC[C@H]1O[C@@H](n2cnc3c(N)ncnc32)[C@H](O)[C@@H]1O`, the result was Active.

Turning to `C=CCNP(=O)(O)OP(=O)(O)OP(=O)(O)OC[C@H]1O[C@@H](n2cnc3c(N)ncnc32)[C@H](O)[C@@H]1O`, the outcome was Active.

On to `C#CCCCNP(=O)(O)OP(=O)(O)OP(=O)(O)OC[C@H]1O[C@@H](n2cnc3c(N)ncnc32)[C@H](O)[C@@H]1O`, for which the outcome was Active.

Take `C#CCNP(=O)(O)OP(=O)(O)OP(=O)(O)OC[C@H]1O[C@@H](n2cnc3c(N)ncnc32)[C@H](O)[C@@H]1O`: the result was Active.

Regarding `[N-]=[N+]=NCCCCCCNP(=O)(O)OP(=O)(O)OP(=O)(O)OC[C@H]1O[C@@H](n2cnc3c(N)ncnc32)[C@H](O)[C@@H]1O`, the outcome was Active.

`[N-]=[N+]=NCCOCCOCCOCCNP(=O)(O)OP(=O)(O)OP(=O)(O)OC[C@H]1O[C@@H](n2cnc3c(N)ncnc32)[C@H](O)[C@@H]1O`: the outcome was Active.
